Test results as given in patent US8143288B2, “Inhibitors of HCV replication” (priority 2005, dated 2012).

Tested on: HCV 1b-377-neo replicon cells
Experiment: HCV replicon FRET assay
Assay type: cell-based
Details: Hepatitis C virus; HCV replicon; read-out: Activity (EC50)
Excerpt: The HCV replicon cell line was isolated from colonies as described by Lohman, et. al. (Science 1999, 285, 110-113, expressly incorporated by reference in its entirety) and used for all experiments. The HCV replicon has the nucleic acid sequence set forth in EMBL Accession No.: AJ242652, the coding sequence of which is from nt 1801 to 7758.
The coding sequence of the published HCV replicon was synthesized by Operon Technologies, Inc. (Alameda, Calif.), and the fall-length replicon was then assembled in plasmid pGem9zf(+) (Promega, Madison, Wis.) using standard molecular biology techniques. The replicon consists of (i) the HCV 5′ UTR fused to the first 12 amino acids of the capsid protein, (ii) the neomycin phosphotransferase gene (neo), (iii) the IRES from encephalomyocarditis virus (EMCV), and (iv) HCV NS3 to NS5B genes and the HCV 3′ UTR. Plasmid DNAs were linearized with ScaI and RNA transcripts were synthesized in vitro using the T7 MegaScript transcription kit (Ambion, Austin, Tex.) according to manufacturer's directions.
To generate cell lines, 4×10^6 Huh-7 cells (kindly provided by R. Bartenschlager and available from Health Science Research Resources Bank, Japan Health Sciences Foundation) were electroporated (GenePulser System, Bio-Rad) with 10 micrograms(“μg”) of RNA transcript and plated into 100-mm dishes. After 24 hours, selective media containing 1.0 milligrams/milliliter (“mg/mL”) G418 was added and media was changed every 3 to 5 days. […] These cell lines were maintained at 37° C., 5% CO2, 100% relative humidity in DMEM (Cat#11965-084) Gibco-BRL, Rockville, Md., with 10% heat inactivated calf serum (Sigma), 10 mL of 100× penicillin/streptomycin (Cat#15140-122) Gibco-BRL, Rockville, Md., Geneticin (Cat#10131-027) Gibco-BRL, Rockville, Md. at 1 mg/mL. One of the cell lines (deposited as ATCC Accession No. PTA-4583 in the American Type Culture Collection) which had approximately 3,000 copies of HCV replicon RNA/cell was used for development of the assay (HCV 1b-377-neo replicon cells).
To perform the HCV FRET screening assay, 96-well cell culture plates were used. The FRET peptide (Anaspec, Inc., San Jose, Calif.) (Taliani et al., Anal. Biochem. 1996, 240, 60-67, hereby incorporated by reference in its entirety) contains a fluorescence donor, EDANS, near one end of the peptide and an acceptor, DABCYL, near the other end. The fluorescence of the peptide is quenched by […] resonance energy transfer (RET) between the donor and the acceptor, but as the NS3 protease cleaves the peptide the products are released from RET quenching and the fluorescence of the donor becomes apparent.
The assay reagent was made as follows: 5X luciferase cell culture lysis (Cat#E153A, Promega, Madison, Wis.) diluted to 1X with dH2O, NaCl added to […] final, the FRET peptide diluted to 20 micromolar (“μM”) final from a 2 mM stock. HCV 1b-377-neo replicon cells were trypsinized, placed into each well of a 96-well plate and allowed to attach overnight. The next day, the test compounds were added to columns 1 through 10; column 11 was media plus DMSO only, and column 12 contained a titration of interferon or an HCV specific inhibitor as a control (1000 units for A12, B12, 100 units for C12, D12, 10 units for E12, F12 and 1 unit for G12, H12). […] In addition, naïve Huh-7 cells could also be used to replace wells A12 and B12 as a background control.
At subsequent various times (typically 72 hours), 10% final volume Alamar blue (Cat#00-100, Trek Diagnostics, Cleveland, Ohio) was added to each well. The plates were returned to the incubator for 5 hours and then read in the Cytoflour (PE Biosystems) to determine Alamar blue conversion in each well as a measure of cellular toxicity.

| Compound | EC50 [nM] |
| --- | --- |
| O=C(Nc1ccc(/C=C/c2ccc(NC(=O)[C@@H]3CCCN3C(=O)OCc3ccccc3)cc2)cc1)[C@@H]1CCCN1C(=O)OCc1ccccc1 [Example 2] | 0.1 to 90 |
| O=C(Nc1ccc(/C=C/c2ccc(NC(=O)[C@@H]3C[C@@H](O)CN3C(=O)OCc3ccccc3)cc2)cc1)[C@@H]1C[C@@H](O)CN1C(=O)OCc1ccccc1 [Example 4] | 0.1 to 90 |
| O=C(Nc1ccc(/C=C\c2ccc(NC(=O)[C@@H]3CCCN3C(=O)Cc3ccccc3)cc2)cc1)[C@@H]1CCCN1C(=O)Cc1ccccc1 [Example 5] | 0.1 to 90 |
| O=C(Nc1ccc(/C=C\c2ccc(NC(=O)[C@@H]3CCCN3C(=O)OCc3ccccc3)cc2)cc1)[C@@H]1CCCN1C(=O)OCc1ccccc1 [Example 6] | 0.1 to 90 |
| O=C(Nc1ccc(/C=C/c2ccc(NC(=O)[C@@H]3C[C@H](O)CN3C(=O)OCc3ccccc3)cc2)cc1)[C@@H]1C[C@H](O)CN1C(=O)OCc1ccccc1 [Example 7] | 0.1 to 90 |
| O=C(Nc1ccc(/C=C\c2ccc(NC(=O)[C@@H]3C[C@@H](O)CN3C(=O)OCc3ccccc3)cc2)cc1)[C@@H]1C[C@@H](O)CN1C(=O)OCc1ccccc1 [Example 8] | 100 to 1000 |
| O=C(Nc1ccc(/C=C/c2ccc(NC(=O)[C@@H]3CCCCN3C(=O)OCc3ccccc3)cc2)cc1)[C@@H]1CCCCN1C(=O)OCc1ccccc1 [Example 9] | 0.1 to 90 |
| O=C(Nc1ccc(/C=C/c2ccc(NC(=O)[C@@H]3Cc4ccccc4CN3C(=O)OCc3ccccc3)cc2)cc1)[C@@H]1Cc2ccccc2CN1C(=O)OCc1ccccc1 [Example 10] | 1000 to 10000 |
| O=C(Nc1ccc(/C=C/c2ccc(NC(=O)[C@@H]3COCN3C(=O)OCc3ccccc3)cc2)cc1)[C@@H]1COCN1C(=O)OCc1ccccc1 [Example 11] | 1000 to 10000 |
| O=C(Nc1ccc(/C=C/c2ccc(NC(=O)C3CC(=O)N(Cc4ccc(Cl)cc4)C3)cc2)cc1)C1CC(=O)N(Cc2ccc(Cl)cc2)C1 (centres unmarked) [Example 12] | 1000 to 10000 |
| O=C(Nc1ccc(/C=C/c2ccc(NC(=O)C3CC(=O)N(Cc4cccs4)C3)cc2)cc1)C1CC(=O)N(Cc2cccs2)C1 (centres unmarked) [Example 13] | 1000 to 10000 |
| O=C(Nc1ccc(/C=C/c2ccc(NC(=O)C3CC(=O)N(CCc4cccs4)C3)cc2)cc1)C1CC(=O)N(CCc2cccs2)C1 (centres unmarked) [Example 14] | 1000 to 10000 |
| CO[C@@H]1C[C@@H](C(=O)Nc2ccc(/C=C/c3ccc(NC(=O)[C@@H]4C[C@H](OC)CN4C(=O)OCc4ccccc4)cc3)cc2)N(C(=O)OCc2ccccc2)C1 [Example 15] | 0.1 to 90 |
| CCO[C@@H]1C[C@@H](C(=O)Nc2ccc(/C=C/c3ccc(NC(=O)[C@@H]4C[C@H](OCC)CN4C(=O)OCc4ccccc4)cc3)cc2)N(C(=O)OCc2ccccc2)C1 [Example 16] | 1000 to 10000 |
| CO[C@H]1C[C@@H](C(=O)Nc2ccc(/C=C/c3ccc(NC(=O)[C@@H]4C[C@H](OC)CN4C(=O)OCc4ccccc4)cc3)cc2)N(C(=O)OCc2ccccc2)C1 [Example 17] | 1000 to 10000 |
| CCO[C@H]1C[C@@H](C(=O)Nc2ccc(/C=C/c3ccc(NC(=O)[C@@H]4C[C@H](OCC)CN4C(=O)OCc4ccccc4)cc3)cc2)N(C(=O)OCc2ccccc2)C1 [Example 18] | 1000 to 10000 |
| O=C(Nc1ccc(/C=C/c2ccc(NC(=O)[C@@H]3Cc4ccccc4N3C(=O)OCc3ccccc3)cc2)cc1)[C@@H]1Cc2ccccc2N1C(=O)OCc1ccccc1 [Example 19] | 0.1 to 90 |
| CC(C)(C)OC(=O)N1c2ccccc2C[C@H]1C(=O)Nc1ccc(/C=C/c2ccc(NC(=O)[C@@H]3Cc4ccccc4N3C(=O)OC(C)(C)C)cc2)cc1 [Example 20] | 100 to 1000 |
| CC(C)(C)OC(=O)N1CCC[C@H]1C(=O)Nc1ccc(/C=C/c2ccc(NC(=O)[C@@H]3CCCN3C(=O)OC(C)(C)C)cc2)cc1 [Example 21] | 100 to 1000 |
| CC(C)(C)OC(=O)N1CCC[C@H]1C(=O)Nc1ccc(/C=C/c2ccc(NC(=O)[C@@H]3CCCN3)cc2)cc1 [Example 22] | 1000 to 10000 |
| COc1cccc(CC(=O)N2CCC[C@H]2C(=O)Nc2ccc(/C=C/c3ccc(NC(=O)[C@@H]4CCCN4C(=O)Cc4cccc(OC)c4)cc3)cc2)c1 [Example 25] | 100 to 1000 |

| Compound | EC50 [nM] |
| --- | --- |
| O=C(Nc1ccc(/C=C/c2ccc(NC(=O)[C@@H]3CCCN3C(=O)CC3CC3)cc2)cc1)[C@@H]1CCCN1C(=O)CC1CC1 [Example 26] | 0.1 to 90 |
| COCCOCC(=O)N1CCC[C@H]1C(=O)Nc1ccc(/C=C/c2ccc(NC(=O)[C@@H]3CCCN3C(=O)COCCOC)cc2)cc1 [Example 27] | 100 to 1000 |
| CN(C)CC(=O)N1CCC[C@H]1C(=O)Nc1ccc(/C=C/c2ccc(NC(=O)[C@@H]3CCCN3C(=O)CN(C)C)cc2)cc1 [Example 28] | 100 to 1000 |
| CC(Oc1cccc(Cl)c1)C(=O)N1CCC[C@H]1C(=O)Nc1ccc(/C=C/c2ccc(NC(=O)[C@@H]3CCCN3C(=O)C(C)Oc3cccc(Cl)c3)cc2)cc1 (some centres unmarked) [Example 29] | 100 to 1000 |
| O=C(O)CCC(=O)N1CCC[C@H]1C(=O)Nc1ccc(/C=C/c2ccc(NC(=O)[C@@H]3CCCN3C(=O)CCC(=O)O)cc2)cc1 [Example 30] | 100 to 1000 |
| O=C(Nc1ccc(/C=C/c2ccc(NC(=O)[C@@H]3CCCN3C(=O)C3CC3)cc2)cc1)[C@@H]1CCCN1C(=O)C1CC1 [Example 31] | 0.1 to 90 |
| COc1cccc(C(=O)N2CCC[C@H]2C(=O)Nc2ccc(/C=C/c3ccc(NC(=O)[C@@H]4CCCN4C(=O)c4cccc(OC)c4)cc3)cc2)c1 [Example 32] | 0.1 to 90 |
| COc1cccc(CCC(=O)N2CCC[C@H]2C(=O)Nc2ccc(/C=C/c3ccc(NC(=O)[C@@H]4CCCN4C(=O)CCc4cccc(OC)c4)cc3)cc2)c1 [Example 33] | 100 to 1000 |
| COc1ccc2[nH]c(C)c(CC(=O)N3CCC[C@H]3C(=O)Nc3ccc(/C=C/c4ccc(NC(=O)[C@@H]5CCCN5C(=O)Cc5c(C)[nH]c6ccc(OC)cc56)cc4)cc3)c2c1 [Example 34] | 0.1 to 90 |
| COc1ccc2[nH]cc(CC(=O)N3CCC[C@H]3C(=O)Nc3ccc(/C=C/c4ccc(NC(=O)[C@@H]5CCCN5C(=O)Cc5c[nH]c6ccc(OC)cc56)cc4)cc3)c2c1 [Example 35] | 0.1 to 90 |
| Cc1cc(CC(=O)N2CCC[C@H]2C(=O)Nc2ccc(/C=C/c3ccc(NC(=O)[C@@H]4CCCN4C(=O)Cc4cc(C)no4)cc3)cc2)on1 [Example 36] | 0.1 to 90 |
| O=C(Nc1ccc(/C=C/c2ccc(NC(=O)[C@@H]3CCCN3C(=O)COc3cccc(Cl)c3)cc2)cc1)[C@@H]1CCCN1C(=O)COc1cccc(Cl)c1 [Example 38] | 100 to 1000 |
| CC(C)C(=O)N1CCC[C@H]1C(=O)Nc1ccc(/C=C/c2ccc(NC(=O)[C@@H]3CCCN3C(=O)C(C)C)cc2)cc1 [Example 39] | 100 to 1000 |
| CC(C)CC(=O)N1CCC[C@H]1C(=O)Nc1ccc(/C=C/c2ccc(NC(=O)[C@@H]3CCCN3C(=O)CC(C)C)cc2)cc1 [Example 40] | 100 to 1000 |
| Cn1cnc(CC(=O)N2CCC[C@H]2C(=O)Nc2ccc(/C=C/c3ccc(NC(=O)[C@@H]4CCCN4C(=O)Cc4cn(C)cn4)cc3)cc2)c1 [Example 41] | 0.1 to 90 |
| O=C(Nc1ccc(/C=C/c2ccc(NC(=O)[C@@H]3CCCN3C(=O)Cc3c[nH]cn3)cc2)cc1)[C@@H]1CCCN1C(=O)Cc1c[nH]cn1 [Example 42] | 1000 to 10000 |
| O=C(Nc1ccc(/C=C/c2ccc(NC(=O)[C@@H]3CCCN3C(=O)Cc3ccncc3)cc2)cc1)[C@@H]1CCCN1C(=O)Cc1ccncc1 [Example 43] | 100 to 1000 |
| O=C(Nc1ccc(/C=C/c2ccc(NC(=O)[C@@H]3CCCN3C(=O)C3CCC3)cc2)cc1)[C@@H]1CCCN1C(=O)C1CCC1 [Example 44] | 0.1 to 90 |
| CCC(=O)N1CCC[C@H]1C(=O)Nc1ccc(/C=C/c2ccc(NC(=O)[C@@H]3CCCN3C(=O)CC)cc2)cc1 [Example 46] | 100 to 1000 |
| COCC(=O)N1CCC[C@H]1C(=O)Nc1ccc(/C=C/c2ccc(NC(=O)[C@@H]3CCCN3C(=O)COC)cc2)cc1 [Example 47] | 100 to 1000 |
